Three compounds from ChEMBL document CHEMBL1131627, “Noncalcemic, antiproliferative, transcriptionally active, 24-fluorinated hybrid analogues of the hormone 1alpha, 25-dihydroxyvitamin D3. Synthesis and preliminary biological evaluation” (J Med Chem, 1998) can be followed below.

The target of the experiment is T1, Vitamin D3 receptor (Rattus norvegicus) (UniProt P13053).
T1 sequence (whole entry): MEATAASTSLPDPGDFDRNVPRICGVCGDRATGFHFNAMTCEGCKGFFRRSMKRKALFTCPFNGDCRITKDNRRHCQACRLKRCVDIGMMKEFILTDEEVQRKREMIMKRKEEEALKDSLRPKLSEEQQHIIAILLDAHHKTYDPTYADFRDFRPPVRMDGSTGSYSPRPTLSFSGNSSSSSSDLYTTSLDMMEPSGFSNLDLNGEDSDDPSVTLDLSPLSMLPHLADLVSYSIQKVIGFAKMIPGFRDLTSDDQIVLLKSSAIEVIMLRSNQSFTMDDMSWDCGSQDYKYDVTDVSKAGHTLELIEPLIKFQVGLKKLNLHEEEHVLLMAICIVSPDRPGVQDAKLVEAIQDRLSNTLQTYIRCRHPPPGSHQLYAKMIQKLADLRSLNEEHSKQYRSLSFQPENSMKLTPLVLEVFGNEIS
Kind of experiment: Vitamin D receptor mediated transcriptional activity in rat osteosarcoma ROS 17/2.8 cells.

Molecules are shown by their SMILES.

Take `C=C1/C(=C\C=C2/CCC[C@]3(C)[C@@H]([C@H](C)CCCC(C)(C)O)CC[C@@H]23)C[C@@H](O)C[C@@H]1O`: the ED50 came out at 0.3 nM.

With `C=C1/C(=C\C=C2/CCC[C@]3(C)C([C@H](C)CCC(F)(F)C(C)(C)O)=CC[C@@H]23)C[C@H](O)C[C@H]1CO`, the ED50 came to 0.2 nM. The compound `C=C1/C(=C\C=C2/CCC[C@]3(C)C([C@H](C)CCC(F)(F)C(O)(CC)CC)=CC[C@@H]23)C[C@H](O)C[C@H]1CO` displayed an ED50 of 0.05 nM.
